Like-named read-outs stand apart in the source and are kept apart here.

Assay [1] has as its system McoB. To be noted: read-out: ABTS; pH 5.0; 0.125 to 15 mM substrate.
For assay [2], the system named is McoG. To be noted: read-out: ABTS; pH 5.0; 0.125 to 15 mM substrate.
Assay [3] concerns the target T1, McoB.
T1 construct: secreted, homologously expressed in A. niger N593, purified from culture supernatant; theoretical ~63 kDa, ~88 kDa SDS-PAGE, ~96 kDa gel filtration; monomer; yellow
Briefly: initial oxidation rate at […] nm, Michaelis-Menten fit. The following applies: substrate inhibition; second site; pH 5.0. The format is biochemical, Aspergillus niger.

In assay [4] the target is T2, McoG.
T2 construct: secreted, homologously expressed in A. niger N593, purified from culture supernatant; theoretical ~65 kDa, ~80 kDa SDS-PAGE, ~99 kDa gel filtration; monomer; blue
The description is as above. The format is biochemical, Aspergillus niger. To be noted: substrate inhibition; second site; pH 5.0.

Assay [5] has as its system T3, McoA.
T3 construct: secreted, homologously expressed in A. niger N593, purified from culture supernatant; theoretical ~64 kDa, ~110 kDa SDS-PAGE, ~120 kDa gel filtration; monomer; blue
The assay is described as above. The format is biochemical, Aspergillus niger. To be noted: pH 5.0; 0.125 to 15 mM substrate; read-out: DMPPDA.

Assay [6] concerns T2, McoG. The description is as above. In kind it is biochemical, Aspergillus niger. To be noted: pH 5.0; 0.125 to 15 mM substrate; fit with substrate inhibition; read-out: DMPPDA.
For assay [7], the system named is T1, McoB. Described as above. In kind it is biochemical, Aspergillus niger. To be noted: pH 5.0; 0.125 to 15 mM substrate; fit with substrate inhibition; read-out: DMPPDA.

Turning to `CCn1c(=NN=c2sc3cc(S(=O)(=O)O)ccc3n2CC)sc2cc(S(=O)(=O)O)ccc21` [ABTS], the results for the Km in assay [1] and in assay [2] were 500 ± 100 µM and 5600 ± 1000 µM, respectively.
Consider `CN(C)c1ccc(N)cc1` [DMPPDA], for which the Ki in assay [3] amounted to 22.4 ± 6.4 mM; in assay [4], 4.6 ± 0.7 mM. For the same molecule, the values for the Km in assay [5], in assay [6] and in assay [7] were 3600 ± 200 µM, 1800 ± 300 µM and 400 ± 100 µM, respectively.

These data come from PMC3548707, “Biocatalytic potential of laccase-like multicopper oxidases from Aspergillus niger” (Microbial Cell Factories, 2012).
